# Earlier results in US12596089B2, “Devices, systems, and methods for antimicrobial susceptibility testing” (Avails Medical, Inc., priority 2022, dated 2026).
# Assays:
# [1] = tested on: CDC-846 strain of E. coli; conditions: stated as known
# [2] = tested on: CDC-650 strain of E. coli; conditions: stated as known
compound,measurement,setting,value
CO/N=C(\C(=O)N[C@@H]1C(=O)N2C(C(=O)O)=C(CSc3nc(=O)c(=O)[nH]n3C)CS[C@H]12)c1csc(N)n1 [ceftriaxone],susceptibility of the bacteria to the anti-infective,[1],resistant
same,susceptibility of the bacteria to the anti-infective,[2],highly susceptible
